From patent US12109264B2, “Motile sperm domain containing protein 2 and inflammation” (ImmuneWalk Therapeutics, Inc., priority 2015, dated 2024)
“Also recorded” adds a separate entry of the source.

Legend:
MOSPD2 [1] = target: T1, MOSPD2 (Homo sapiens, UniProt Q8NHP6); assay: Precipitation of human monocyte proteins with labeled compound, differential display by Mass-Spectrometry; assay type: binding; conditions: proteins from human monocytes
T1 construct: labelled VB-201 and VB-221 were employed on cell lysates from human CD14 monocytes; endogenous in cells; host or cells: primary human CD14 monocytes from peripheral blood of healthy donors
T1 sequence (Q8NHP6 1-518): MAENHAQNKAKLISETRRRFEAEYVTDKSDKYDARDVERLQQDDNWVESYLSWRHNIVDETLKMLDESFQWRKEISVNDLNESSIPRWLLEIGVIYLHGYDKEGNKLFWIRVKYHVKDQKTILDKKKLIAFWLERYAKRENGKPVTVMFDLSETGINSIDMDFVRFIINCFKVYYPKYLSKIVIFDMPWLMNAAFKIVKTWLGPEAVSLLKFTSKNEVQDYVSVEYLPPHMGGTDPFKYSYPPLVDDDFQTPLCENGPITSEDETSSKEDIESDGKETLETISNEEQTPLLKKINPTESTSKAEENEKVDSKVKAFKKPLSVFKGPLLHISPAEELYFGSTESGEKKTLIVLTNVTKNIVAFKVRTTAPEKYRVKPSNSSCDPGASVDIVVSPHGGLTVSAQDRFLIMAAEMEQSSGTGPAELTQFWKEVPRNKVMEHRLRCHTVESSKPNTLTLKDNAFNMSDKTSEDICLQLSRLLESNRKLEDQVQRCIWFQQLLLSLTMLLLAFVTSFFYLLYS

TLR2 = target: T2, TLR2 (Homo sapiens, UniProt O60603); assay: Precipitation from human CD14 monocyte lysate, blot against TLR2; assay type: binding; conditions: labelled compound (OB201/OB221)
T2 construct: endogenous in cells; host or cells: primary human CD14 monocytes
Procedure: (§1) VB-201 and VB-221 were labeled with biotin as follows. VB-201, VB-221 and ovalbumin (OVA, Sigma, Israel) were dissolved in 0.1M MES buffer (Thermo Scientific, Rockford, IL) and conjugated using EDC [1-ethyl-3-(dimethylaminopropyl) carbodiimide HCL] (Thermo Scientific) at a molar ratio of 100 (VB-201/VB-221):1 (OVA):240 (EDC) for 2-3 hr at room temperature. After which, samples were transferred to 10 kDa dialysis cassettes (Thermo Scientific) and dialyzed overnight against PBS. The ovalbumin bound VB-201 (OB201) and VB-221 (OB221) were then conjugated with amine-PEG2-biotin (in 0.1M MES buffer) using EDC at a molar ratio of 1 (OB201/0B221):100 (amine-PEG2-biotin):700 (EDC). The reaction was allowed to proceed for 2-3 hr at room temperature after which samples were again transferred to a 10 kDa dialysis cassette and dialyzed overnight against PBS.
(§2) Cells were lysed using a 1% NP-40 lysis buffer containing 1:100 protease and phosphatase inhibitors, followed by 20 min incubation on ice and 15 min centrifugation at maximum speed. Samples were incubated overnight at 4° C. with solvent, OB201 or OB221 in a rotator. Streptavidin agarose beads (Sigma, Israel) were added for 2 hours. Protein elution was performed with lysis buffer without DTT for 10 min at room temperature. Sample loading, transfer and immuno-blotting were performed as described above. […]

[2] = target: T3, HA-tagged human MOSPD2 on HEK293 cells (Homo sapiens, UniProt Q8NHP6); assay: Cell-surface binding by flow cytometry on transfected HEK293 cells; conditions: for staining of / binding to cells that express MOSPD2 (HA positive): labelled compound (OB201/OB221), streptavidin-APC, HEK293 transfected with HA-tagged MOSPD2
T3 construct: Full length human MOSPD2 cDNA was inserted, using EcoRI and XbaI restriction sites; HA (YPYDVPDYA); expressed in transfected cells; host or cells: HEK293
T3 sequence (Q8NHP6 1-518): T1 sequence (Q8NHP6 1-518)
Procedure: HEK293 cells were transfected for 48 hours with empty plasmid or plasmid encoding hemagglutinin (HA)-tagged human MOSPD2 using jetPRIME transfection reagent (Polyplus transfection, France). Transfection efficiency was determined by flow cytometry using anti-HA-PE (miltenyi Biotec, Germany) antibody.
as §1
Streptavidin-APC (eBioscience, San Diego, CA) was used to detect binding of labelled VB-201 or VB-221 in flow cytometry experiments.
Studies were also conducted to assess whether VB-201 can bind MOSPD2 in its native form, when expressed on the cell surface. Thus, HEK293 cells were transfected with a plasmid encoding HA-tagged human MOSPD2 and then stained with labelled VB-201 or VB-221.

monocytes = conditions: cited from earlier work
[3] = system: chemokine-induced signaling in human monocytes; conditions: cited from earlier work
MOSPD2 [4] = target: T1, MOSPD2; assay: Precipitation from human CD14 monocyte lysate, blot against MOSPD2; assay type: binding; conditions: labelled compound (OB201/OB221)
Procedure: as §1, §2

T2 sequence (O60603 21-784): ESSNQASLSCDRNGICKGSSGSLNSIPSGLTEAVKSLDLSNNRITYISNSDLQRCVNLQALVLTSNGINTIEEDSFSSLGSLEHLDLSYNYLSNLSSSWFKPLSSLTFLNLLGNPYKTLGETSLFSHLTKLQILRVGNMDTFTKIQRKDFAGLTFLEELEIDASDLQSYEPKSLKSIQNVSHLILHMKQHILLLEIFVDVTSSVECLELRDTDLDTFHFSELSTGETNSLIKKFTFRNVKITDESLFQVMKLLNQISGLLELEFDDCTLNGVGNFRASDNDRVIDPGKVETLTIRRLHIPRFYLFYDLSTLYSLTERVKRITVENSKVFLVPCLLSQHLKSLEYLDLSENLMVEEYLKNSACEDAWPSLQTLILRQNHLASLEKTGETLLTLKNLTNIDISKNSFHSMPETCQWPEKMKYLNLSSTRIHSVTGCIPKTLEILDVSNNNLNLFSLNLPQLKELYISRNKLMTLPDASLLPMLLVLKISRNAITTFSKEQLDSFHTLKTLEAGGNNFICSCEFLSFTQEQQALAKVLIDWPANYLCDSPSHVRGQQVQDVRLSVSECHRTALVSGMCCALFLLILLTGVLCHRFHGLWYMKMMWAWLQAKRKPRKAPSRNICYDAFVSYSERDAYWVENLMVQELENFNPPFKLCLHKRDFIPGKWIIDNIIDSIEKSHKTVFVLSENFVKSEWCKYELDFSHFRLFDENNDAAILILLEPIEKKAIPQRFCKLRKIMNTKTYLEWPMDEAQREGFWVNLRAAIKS

Molecule	binding of MOSPD2 (Mass-Spectrometry of precipitated proteins) (MOSPD2 [1])	precipitation of TLR2 (TLR2)	staining of / binding to cells that express MOSPD2 (HA positive) [2]	chemokine-induced migration in human monocytes (monocytes)	chemokine-induced signaling in human monocytes [3]	precipitation of MOSPD2 (MOSPD2 [4])	binding to cells transfected with empty vector ([2]; HEK293 transfected with empty vector)	migration of monocytes (monocytes; in vitro and in vivo)
CCCCCCCCCCC(CCCCCCCC)COCC(COP(=O)([O-])OCC[N+](C)(C)C)OCCCCC(=O)O (centres unmarked) [VB-221, 1-(2′-octyl)dodecyl-2-(4′-carboxy)butyl-glycero-3-phosphocholine]	not	comparable intensity	only weak staining	did not inhibit	did not inhibit	–	–	–
1-hexadecyl-2-(4′-carboxy)butyl-glycero-3-phosphocholine [VB-201]	strong binding	comparable intensity	binds; also recorded: profound staining	–	–	binds; also recorded: markedly more intense than VB-221	not	inhibits
